Laboratory results published in ChEMBL document CHEMBL1140630, “Resisting degradation by human elastase: commonality of design features shared by 'canonical' plant and bacterial macrocyclic protease inhibitor scaffolds” (Bioorg Med Chem, 2007).
One block for each molecule: values may come before it. Bridge positions count the residues as written; N and C are the ends. Peptide text beside a SMILES is read from it.

Key:
[1] = Inhibition of trypsin
Pancreatic elastase = Pancreatic elastase (Sus scrofa, UniProt P08419+P00772); assay: Inhibition of porcine pancreatic elastase; format: protein assay
[2] = Inhibition of subtilisin BPN
[3] = Inhibition of chymotrypsin

Structure (SMILES): CC(C)C[C@@H](NC(=O)[C@H](O)COS(=O)(=O)O)C(=O)N[C@@H]1C(=O)N[C@@H](CCCNC(=N)N)C(=O)N[C@H]2CC[C@@H](O)N(C2=O)[C@@H](CC(C)C)C(=O)N(C)[C@@H](Cc2ccc(O)cc2)C(=O)N[C@@H](C(C)C)C(=O)O[C@@H]1C
Ki [1]: 9 nM

IC50 (Pancreatic elastase): 260 nM
Structure (SMILES): C/C=C1\NC(=O)[C@H]2NC(=O)[C@@H](NC(=O)C(C)C)CCCNC(=O)Nc3cc(O)c(O)cc3C[C@@H](C(=O)N[C@@H](C(C)C)C(=O)O[C@H]2C)N(C)C(=O)[C@H](Cc2ccccc2)N2C(=O)[C@H](CC[C@H]2O)NC1=O

Ki [2]: 1.5 nM | Ki [3]: 300 nM
Structure (SMILES): CSCC[C@@H]1NC(=O)[C@@H](NC(=O)[C@H](C)NC(=O)[C@@H](N)Cc2ccccc2)[C@@H](C)OC(=O)C[C@@H]2NC(=O)[C@H](COC(=O)C[C@@H](C(=O)N[C@@H](CCC(=O)O)C(=O)O)NC(=O)[C@H](CO)NC2=O)NC(=O)[C@@H]2CCCN2C(=O)[C@H](Cc2ccc(O)cc2)NC(=O)[C@H](CCCNC(=N)N)NC1=O [MARINOSTATIN] (H-FATMRYPSDSDE-OH; ester 3-9, 8-11)

IC50 (Pancreatic elastase): 160 nM
Structure (SMILES): CCCC(=O)N[C@@H](C)C(=O)N[C@H](C(=O)N[C@@H]1C(=O)N[C@@H](CC(C)C)C(=O)N[C@@H]2CC[C@H](O)N(C2=O)[C@@H](C(C)O)C(=O)N[C@@H](Cc2ccc(O)c(Cl)c2)C(=O)N[C@@H](C(C)C)C(=O)O[C@H]1C)[C@@H](C)O (stereo not given in full) [SCYPTOLIN A]
